Experimental findings from EP3811940B1, “SUBSTITUTED 4,5'-BITHIAZOLES AS INHIBITORS OF THE HUMAN DNA TOPOISOMERASE II” (Kemijski Institut, priority 2019, dated 2021) are described below.

Usually IC50 stands for the concentration at which inhibition is half-maximal. By EC50 is commonly meant the concentration that produces a half-maximal response.

Like-named read-outs stand apart in the source and are kept apart here.

The target in one data set is T1, human topo IIα (Homo sapiens, UniProt P11388).
T1 construct: purchased Inspiralis (Norwich, UK)
The data set can be described thus: HTS relaxation assay of human topo IIα. The data set is classed as biochemical. The settings on record: screening at 7.8, 31.5, 125 and 500 µM. The procedure:
The 14 selected compounds from the class of substituted 4,5'-bithiazoles were experimentally assayed if they inhibit catalytic activity of human topo IIα using an established high-throughput screening (HTS) relaxation assay for human topo IIα [24].
The HTS assays primarily served to select compounds for further evaluation.
Plate was rehydrated using wash buffer (20 mM Tris-HCl (pH = 7.6), 137 mM NaCl, 0.005 % (w/v) BSA, 0.05 % (v/v) TWEEN-20®) and biotinylated oligonucleotide was immobilized onto the wells. Next, the excess oligonucleotide was washed off with wash buffer. Enzyme assay was carried out in reaction volume of 30 µL using 0.75 µg supercoiled plasmid pNO1 as a substrate and human topo IIα. Enzyme was diluted to the appropriate concentration with dilution buffer comprised of 50 mM Tris-Hcl (pH = 7.5), 100 mM NaCl, 1 mM DTT, 0.5 mM EDTA, 50 % (v/v) glycerol and 50 µg/mL albumin. Tested compounds (0.3 µL) were added as a stock solution in DMSO and final concentration of DMSO was 1 %, respectively. Reactions were incubated at 37 °C for 30 min, and TF buffer (50 mM NaOAc (pH = 5.0), 50 mM NaCl, 50 mM MgCl2) was added to the wells and incubated at room temperature for additional 30 min to allow the triplex biotin-oligonucleotid-plasmid formation. To eliminate the aggregation and non-specific inhibition a surfactant (TWEEN-20®) was added to the reaction mixture. Unbound plasmid was washed off with TF buffer and stained with the DNA-detection Dye in the T10 buffer (10 mM Tris-HCl (pH = 8) and 1 mM EDTA) was added. After mixing, fluorescence was read using Tecan fluorimeter (Excitation: 485 nm and Emission: 535 nm). Screening was performed at the inhibitor concentrations of 7.8, 31.5, 125 and 500 µM. IC50 values were calculated using GraphPad Prism 6.0 software and represent the concentrations of inhibitors where residual activity of the enzyme was 50 % [24].

The nature of data set [1]: solubility in the cell growth media. The data set is classed as physicochemical. The settings on record: result in words.
Another data set concerns HepG2 cells. The data set can be described thus: MTS cytotoxicity assay, HepG2. The settings on record: for effect on the tested cell lines: initial screening, 24 h, 100 µM for compound 6, 200 µM for 8 and 11, result in words; for EC50: Homo sapiens, interval in brackets. The data set is classed as cell-based, human. The text has this:
(§1) We determined the cytotoxicity of the tested compounds on human breast cancer MCF-7 and human hepatocellular carcinoma HepG2 cancer cell lines using MTS assay. Both selected human cancer cell lines are representative and well-established systems for cell-based evaluation of potential anticancer compounds. Etoposide was again used as a positive control (PC).
(§2) In the first step we performed the initial screening of compounds 1-14 at one concentration. […] Exponentially growing cells were exposed to all compounds for 24 h and the results are represented in Figure 3A.
(§3) In vitro cytotoxicity of investigated compounds was evaluated in two human cancer cell lines: the […] cell lines. The HepG2 cells (ATCC) were cultivated at 37 °C and 5 % CO2 in MEME medium (M2414, Sigma) supplemented with 10 % FBS, 2 mM L-Glutamine, 1 % NEAA, 2.2 g/L NaHCO3, 1 mM sodium pyruvate and 100 IU/mL penicillin/ streptomycin and MCF-7 (ATCC) were cultivated in Eagle's MEM medium (M5650, Sigma), supplemented with 10 % fetal bovine serum, 2 mM glutamine, and 100 IU/mL penicillin/streptomycin. After the exposure to the tested compounds the viability of HepG2 and MCF-7 cells was determined by MTS tetrazolium reduction assay. The cells were seeded onto 96-well microplates (Nunc, TermoFisher Scientific, Waltham, MA, USA) at densities of 8000 cells per well (HepG2) and 7000 cells per well (MCF-7) in […] growth medium and incubated overnight to attach. The next day, the growth medium was replaced by the fresh complete growth medium containing appropriate concentrations of the compounds. […] Finally, the absorbance was measured at wavelength of 490 nm using a Microplate Reader (Synergy MX, BioTek, Winooski, VT, USA). […] Assay was performed at 5 concentrations of each compound; 2, 25, 50, 100 and 200 µM for compounds 1, 7 and 14 and 1, 12.5, 25, 50, 100 µM for compounds 9 and 10. […] Cell viability was determined by comparing the OD (optical density) of the wells containing the cells treated with investigated compounds with those of solvent control cells and presented as % of cell viability ± SD. Experiments were performed three times independently each time in at least three replicates. EC50 values were calculated by non-linear regression analysis using GraphPad Prism 7.0 Software. Statistical significance between treated groups and the control was determined by One-way analysis of variance and Dunnett's Multiple Comparison Test.

The next data set has as its system MCF-7 cells. The experiment in a line: MTS cytotoxicity assay, MCF-7. The data set is classed as cell-based, human. The settings on record: for effect on the tested cell lines: initial screening, 24 h, 100 µM for compound 6, 200 µM for 8 and 11, result in words; for EC50: Homo sapiens, interval in brackets.
From the text: as §1, §2, §3
A general note: Formazan colour is commonly taken as a measure of viable cells.

[2] abbreviates: HepG2, read-out: EC50 [µM] HepG2 (24h), 24h exposure.
[3] abbreviates: HepG2, 72h exposure, read-out: EC50 [µM] HepG2 (72h).
The mark [4] stands for this setting: MCF7, read-out: EC50 [µM] MCF-7 (24h), 24h exposure.
The mark [5] stands for this setting: MCF7, 72h exposure, read-out: EC50 [µM] MCF-7 (72h).

T1 sequence (P11388 whole entry): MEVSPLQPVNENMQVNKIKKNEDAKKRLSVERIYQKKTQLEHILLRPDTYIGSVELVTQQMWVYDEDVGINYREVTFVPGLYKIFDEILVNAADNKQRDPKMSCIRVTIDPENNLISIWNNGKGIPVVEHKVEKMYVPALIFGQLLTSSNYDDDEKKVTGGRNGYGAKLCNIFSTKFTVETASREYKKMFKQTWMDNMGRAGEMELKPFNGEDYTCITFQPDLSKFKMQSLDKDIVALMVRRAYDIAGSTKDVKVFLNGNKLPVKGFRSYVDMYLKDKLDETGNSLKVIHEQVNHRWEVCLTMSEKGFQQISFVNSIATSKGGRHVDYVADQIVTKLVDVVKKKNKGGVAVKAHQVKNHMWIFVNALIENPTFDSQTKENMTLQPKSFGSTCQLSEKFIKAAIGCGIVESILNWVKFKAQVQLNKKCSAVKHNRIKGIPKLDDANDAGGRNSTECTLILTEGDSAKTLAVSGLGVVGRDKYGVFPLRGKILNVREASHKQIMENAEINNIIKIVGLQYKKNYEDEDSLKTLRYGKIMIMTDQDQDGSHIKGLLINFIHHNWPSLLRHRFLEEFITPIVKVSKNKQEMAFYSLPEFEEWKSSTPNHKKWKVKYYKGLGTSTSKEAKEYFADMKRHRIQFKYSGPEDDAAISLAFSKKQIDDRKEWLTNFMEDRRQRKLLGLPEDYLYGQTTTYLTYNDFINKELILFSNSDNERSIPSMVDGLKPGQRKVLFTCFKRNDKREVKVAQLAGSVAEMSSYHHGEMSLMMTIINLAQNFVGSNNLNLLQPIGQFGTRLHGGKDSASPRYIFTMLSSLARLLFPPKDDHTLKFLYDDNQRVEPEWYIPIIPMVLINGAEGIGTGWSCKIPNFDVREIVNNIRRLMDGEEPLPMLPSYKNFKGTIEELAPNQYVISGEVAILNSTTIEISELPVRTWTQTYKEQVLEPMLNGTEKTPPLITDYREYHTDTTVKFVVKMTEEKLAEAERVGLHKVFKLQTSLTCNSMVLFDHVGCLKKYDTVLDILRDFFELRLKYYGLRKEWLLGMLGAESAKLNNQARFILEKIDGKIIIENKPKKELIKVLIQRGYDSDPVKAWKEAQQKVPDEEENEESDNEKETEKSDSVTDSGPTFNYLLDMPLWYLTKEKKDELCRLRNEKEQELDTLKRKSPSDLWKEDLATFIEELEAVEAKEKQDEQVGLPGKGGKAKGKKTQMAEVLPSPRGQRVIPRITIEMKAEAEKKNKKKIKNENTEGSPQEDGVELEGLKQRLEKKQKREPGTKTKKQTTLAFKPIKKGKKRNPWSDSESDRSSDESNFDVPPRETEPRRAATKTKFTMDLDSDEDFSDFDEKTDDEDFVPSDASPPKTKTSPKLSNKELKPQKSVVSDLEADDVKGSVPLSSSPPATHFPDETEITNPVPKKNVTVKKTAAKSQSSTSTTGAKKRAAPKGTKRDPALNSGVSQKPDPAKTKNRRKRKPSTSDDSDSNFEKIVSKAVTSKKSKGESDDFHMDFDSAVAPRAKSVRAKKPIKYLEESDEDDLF

Compound `Cc1cc(O)ccc1Nc1nc(-c2sc(N)nc2C)cs1` [Compound 2, 4-((2'-amino-4'-methyl-[4,5'-bithiazol]-2-yl)amino)-3-methylphenol] came in with an IC50 against human topo IIα of 35.8 µM.

For the compound `CC(=O)c1ccc(Nc2nc(-c3sc(N)nc3C)cs2)cc1` [Compound 3, 1-(4-((2'-amino-4'-methyl-[4,5'-bithiazol]-2-yl)amino)phenyl)ethan-1-one], the IC50 at human topo IIα was 222 µM. For the same compound, in data set [1], the “solubility in the cell growth media” value is on record as “low solubility”.

`Cc1cc(NS(=O)(=O)c2ccc(Nc3nc(-c4sc(N)nc4C)cs3)cc2)no1` [Compound 4, 4-((2'-amino-4'-methyl-[4,5'-bithiazol]-2-yl)amino)-N-(5-methylisoxazol-3-yl)benzenesulfonamide] displayed an IC50 on human topo IIα of 30.1 µM.

At human topo IIα, `Cc1nc(N)sc1-c1csc(Nc2ccc(S(N)(=O)=O)cc2)n1` [Compound 5, 4-((2'-amino-4'-methyl-[4,5'-bithiazol]-2-yl)amino)benzenesulfonamide] had an IC50 of 70.1 µM.

For the compound `Cc1nc(N)sc1-c1csc(Nc2ccc(C(=O)O)c(O)c2)n1` [Compound 6, 4-((2'-amino-4'-methyl-[4,5'-bithiazol]-2-yl)amino)-2-hydroxybenzoic acid], the “effect on the tested cell lines” value in the data set on HepG2 cells and in the data set with MCF-7 cells was “little or no effect” throughout. Further, half-maximal inhibition at human topo IIα (IC50) was put at 37.7 µM.

On to `CC(=O)Nc1nc(C)c(-c2csc(Nc3cccc(O)c3)n2)s1` [Compound 7, N-(2-((3-hydroxyphenyl)amino)-4'-methyl-[4,5'-bithiazol]-2'-yl)acetamide], for which the EC50 in the data set with HepG2 cells (setting [2]) was found to be 45.6 µM; in the data set with HepG2 cells (setting [3]) it was 32.3 µM; in the data set with MCF-7 cells (setting [4]) it was 12.3 µM; with MCF-7 cells (setting [5]), 6.6 µM. This compound came in with an IC50 against human topo IIα of 33.7 µM.

`CC(=O)Nc1nc(C)c(-c2csc(Nc3ccc(C(=O)O)cc3)n2)s1` [Compound 8, 4-((2'-acetamido-4'-methyl-[4,5'-bithiazol]-2-yl)amino)benzoic acid]: the “effect on the tested cell lines” value in the data set with HepG2 cells and in the data set with MCF-7 cells was “little or no effect” throughout. For the same compound, 120 µM corresponded to half-maximal inhibition at human topo IIα (IC50).

Consider `COc1ccc(Nc2nc(-c3sc(NC(C)=O)nc3C)cs2)cc1` [Compound 10, N-(2-((4-methoxyphenyl)amino)-4'-methyl-[4,5'-bithiazol]-2'-yl)acetamide], for which the EC50 in the data set with HepG2 cells (setting [2]) was 34.7 µM; in the data set with HepG2 cells (setting [3]), 14.6 µM; with MCF-7 cells (setting [4]), 16.4 µM; in the data set on MCF-7 cells (setting [5]) it was 4.5 µM. Also, inhibition against human topo IIα was half-maximal at 22.7 µM (IC50).

As to `CC(=O)Nc1nc(C)c(-c2csc(Nc3cccc(C(=O)O)c3)n2)s1` [Compound 11, 3-((2'-acetamido-4'-methyl-[4,5'-bithiazol]-2-yl)amino)benzoic acid], the “effect on the tested cell lines” value in the data set with HepG2 cells and with MCF-7 cells was “little or no effect” throughout. At human topo IIα, this compound showed an IC50 of 134 µM.

At human topo IIα, `CC(=O)Nc1nc(C)c(-c2csc(Nc3ccc(O)cc3)n2)s1` [Compound 12, N-(2-((4-hydroxyphenyl)amino)-4'-methyl-[4,5'-bithiazol]-2'-yl)acetamide] showed an IC50 of 193 µM.

`CCC(=O)Nc1nc(C)c(-c2csc(Nc3ccc(C(=O)O)cc3)n2)s1` [Compound 13, 4-((4'-methyl-2'-propionamido-[4,5'-bithiazol]-2-yl)amino)benzoic acid] gave an IC50 on human topo IIα of 123 µM.

With `CC(=O)Nc1nc(C)c(-c2csc(Nc3ccccc3)n2)s1` [Compound 14, N-(4'-methyl-2-(phenylamino)-[4,5'-bithiazol]-2'-yl)acetamide], the EC50 with HepG2 cells (setting [2]) was 47.7 µM; with HepG2 cells (setting [3]), 28.2 µM; in the data set with MCF-7 cells (setting [4]), 32.3 µM; in the data set on MCF-7 cells (setting [5]) it was 7.5 µM. Also, on human topo IIα, the half-inhibitory concentration (IC50) stood at 357 µM.

At human topo IIα, `Cc1nc(NC(=O)c2ccccc2)sc1-c1csc(Nc2ccc(C(=O)O)cc2)n1` [Compound 15, 4-((2'-benzamido-4'-methyl-[4,5'-bithiazol]-2-yl)amino)benzoic acid] yielded an IC50 of 12.6 µM.
